# Data from patent US9856511B2, “Protease deubiquitinating inhibitor screening” (priority 2011, dated 2018).
# Key:
# 19S RP = molecular target: T1, 19S RP (Homo sapiens, UniProt P54578+Q9Y5K5); assay: Ubiquitin chain disassembly of K48/K63 linked ubiquitin tetramers by 19S RP; assay type: biochemical
# T1 construct: purchased Boston Biochem E-366
# Method: To this end the ability of b-AP15 to inhibit cleavage of recombinant ubiquitin-GFP was assessed. Recombinant ubiquitin-GFP is a substrate for 19S RP DUB activity (22). […] The type of ubiquitin bonds present in the polyubiquitin chain determines the fate of an ubiquitin-modified substrate. K48 linked polyubiquitin chains generally targets conjoined proteins for degradation (23), whereas K63 linked chains are involved in non-proteolytic roles including DNA repair (24) and mitotic chromosome segregation (25). […] The inhibition of ubiquitin chain disassembly observed could account for the accumulation of high molecular weight ubiquitin conjugates in b-AP15 treated cells.
# The recombinant Ub-GFP plasmid pet19b Ub-M-GFP was generated as described (42). In brief recombinant Ub-GFP was purified from BL21 E. coli cells by His affinity purification. For cleavage assays 19S RP (25 nM) was incubated with 10 mM NEM, 250 μM TPEN or 50 μM b-AP15 for 10 min followed by the addition of recombinant Ub-GFP (200 nM). […] The level of Ub-GFP cleavage or ubiquitin disassembly was determined by immunoblotting with anti ubiquitin antibodies. […] The cleavage of ubiquitinated Hdm2 substrate and ubiquitinated Hdm2 was determined by immunoblotting with anti-Hdm2 antibodies. […]
# human 20S proteasome = molecular target: T2, human 20S proteasome (Homo sapiens, UniProt P28072+P28074+Q99436); assay: In vitro proteasome activity assay (Suc-LLVY-AMC, Z-LLE-AMC, Boc-LRR-AMC); assay type: biochemical; conditions: molar excess of b-AP15
# T2 construct: purchased Boston Biochem E-360
# Method: 20S CP contains the β1, β2 and […] proteolytic subunits responsible for caspase-like, trypsin-like and chymotrypsin-like activities of the proteasome, respectively (18).
# In vitro proteasome activity assays were performed in black 96-well microtiter plates using human 20S proteasome (Boston Biochem) in reaction buffer (25 mM Hepes, 0.5 mM EDTA, 0.03% SDS) with Suc-LLVY-AMC, Z-LLE-AMC or Boc-LRRAMC used as substrates for proteasome activity. De-ubiquitinase activity assays were performed with human 19S RP (Boston Biochem) with ubiquitin-AMC as substrate. For xenograft studies a 100-μl-cell suspension containing 1×10^6 FaDu head-neck or 2×10^5 Lewis Lung Carcinoma (LLC) cells were injected subcutaneously into the flank of SCID or C57BL/6J mice. Upon tumor take mice were randomized into control or treatment groups and administered with 5 mg kg^−1 b-AP15 or vehicle. In vivo levels of apoptosis and cell death were determined from the detection of caspase cleaved and total levels of cytokeratin-18 in plasma using M30 Apoptosense® and M65 ELISA®s assays (Peviva). […]
# In vitro proteasome activity assays using 20S CP (2 nM) (Boston Biochem) were performed at 37° C. in 100-μl reaction buffer (25 mM Hepes, 0.5 mM EDTA, 0.03% SDS). […] Fluorescence was monitored using Wallac Multilabel counter or Tecan Infinite M1000 equipped with 360 nm excitation and 460 nm emission filters. […]
structure (smiles),measurement,setting,value
C=CC(=O)N1C/C(=C\c2ccc([N+](=O)[O-])cc2)C(=O)/C(=C/c2ccc([N+](=O)[O-])cc2)C1 [b-AP15],19S RP processing of K48 and K63 linked ubiquitin tetramers,19S RP,inhibited 19S RP processing of both K48 and K63 linked ubiquitin tetramers
same,"caspase-like, trypsin-like and chymotrypsin-like activities of the proteasome",human 20S proteasome,do not show alteration
